This note sets out measurements from BindingDB's records for patent US20230340011 (Asteroid Therapeutics, 2023).

Assay [1] addresses T1, Oxysterols receptor LXR-beta (Homo sapiens, UniProt P55055).
T1 sequence (P55055 whole entry): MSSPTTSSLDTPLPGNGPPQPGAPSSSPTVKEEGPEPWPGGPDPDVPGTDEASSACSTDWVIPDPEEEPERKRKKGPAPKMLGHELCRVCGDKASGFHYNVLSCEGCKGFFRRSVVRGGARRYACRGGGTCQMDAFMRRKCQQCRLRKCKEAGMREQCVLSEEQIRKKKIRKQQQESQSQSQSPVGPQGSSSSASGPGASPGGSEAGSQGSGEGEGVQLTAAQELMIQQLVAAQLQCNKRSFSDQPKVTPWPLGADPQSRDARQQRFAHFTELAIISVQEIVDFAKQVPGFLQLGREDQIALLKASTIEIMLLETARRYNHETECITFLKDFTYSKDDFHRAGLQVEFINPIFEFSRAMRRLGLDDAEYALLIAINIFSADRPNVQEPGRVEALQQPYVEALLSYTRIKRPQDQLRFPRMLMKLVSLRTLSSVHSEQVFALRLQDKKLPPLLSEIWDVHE
Nature of the assay: In Vitro Assay-LXRβ.
Procedure: PathHunter NHR CHO cells stably transfected with tagged full-length human LXRβ and a nuclear fusion protein containing Steroid Receptor Co-activator Peptide (SRCP). The full-length human LXRβ was tagged with the ProLink component of the DiscoverX Enzyme Fragment Complementation (EFC) system and the SRCP domain is fused to the enzyme acceptor component (EA) expressed in the nucleus. Cells were seeded in a total volume of 20 μL into white walled, 384-well microplates and incubated at 37 C. overnight prior to testing. Assay media contained charcoal-dextran filtered serum to reduce the level of hormones present. Final assay vehicle concentration was 1%. […] Microplates were read following signal generation with a PerkinElmer Envision instrument for chemiluminescent signal detection.

Assay [2] has as its target T2, Sterol regulatory element-binding protein 2 (Homo sapiens, UniProt Q12772).
T2 sequence (Q12772 whole entry): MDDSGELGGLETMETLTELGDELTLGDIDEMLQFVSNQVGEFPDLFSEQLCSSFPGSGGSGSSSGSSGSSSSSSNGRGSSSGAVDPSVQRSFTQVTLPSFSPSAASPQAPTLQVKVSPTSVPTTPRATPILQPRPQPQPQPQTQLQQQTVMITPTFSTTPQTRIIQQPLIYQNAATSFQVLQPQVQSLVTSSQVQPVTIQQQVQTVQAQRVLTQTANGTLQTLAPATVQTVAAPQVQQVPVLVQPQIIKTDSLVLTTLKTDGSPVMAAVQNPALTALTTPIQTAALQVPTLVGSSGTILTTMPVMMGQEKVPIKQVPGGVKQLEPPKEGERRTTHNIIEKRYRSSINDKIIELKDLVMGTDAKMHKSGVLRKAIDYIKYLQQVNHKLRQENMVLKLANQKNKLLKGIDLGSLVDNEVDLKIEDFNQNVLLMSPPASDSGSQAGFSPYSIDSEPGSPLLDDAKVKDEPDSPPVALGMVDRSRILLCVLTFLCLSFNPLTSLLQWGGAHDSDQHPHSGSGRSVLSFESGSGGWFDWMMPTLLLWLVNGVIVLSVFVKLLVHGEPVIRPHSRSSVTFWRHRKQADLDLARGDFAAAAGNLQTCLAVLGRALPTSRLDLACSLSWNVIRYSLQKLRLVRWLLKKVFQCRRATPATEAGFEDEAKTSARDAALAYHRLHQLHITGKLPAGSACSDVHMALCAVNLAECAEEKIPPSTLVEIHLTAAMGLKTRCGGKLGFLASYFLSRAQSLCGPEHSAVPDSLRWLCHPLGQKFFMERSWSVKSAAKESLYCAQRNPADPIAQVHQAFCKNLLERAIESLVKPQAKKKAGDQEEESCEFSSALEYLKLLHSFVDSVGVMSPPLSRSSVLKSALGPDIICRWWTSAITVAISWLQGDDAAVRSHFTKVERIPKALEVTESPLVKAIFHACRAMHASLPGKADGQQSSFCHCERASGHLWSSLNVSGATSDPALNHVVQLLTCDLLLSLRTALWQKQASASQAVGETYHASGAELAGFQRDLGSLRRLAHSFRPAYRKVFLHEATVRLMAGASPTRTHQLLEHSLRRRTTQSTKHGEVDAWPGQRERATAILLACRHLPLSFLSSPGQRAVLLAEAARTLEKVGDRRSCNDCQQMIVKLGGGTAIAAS
Nature of the assay: In Vitro Assay-SREBP-2. How it is done: 10,000 cells/well of the PathHunter U2OS SREBP-2 Nuclear Translocation Cell Line are plated in quadruplicate on 384 well plates in 20 μL of AssayComplete cell plating 5 reagent (CP5-high serum) overnight at 37° C./5% CO2. A dilution series of test compound is added to cells, incubated for 1 hour at 37° C./5% CO2, and U18666A (a known SREBP agonist) is added to a final concentration of 10 μM. The plate is incubated overnight (16 hours) at 37° C./5% CO2. PathHunter Flash detection mix is added to the wells, incubated one hour in the dark, and the plate read on an Envision luminometer.

Regarding `Cc1cccc(/C=C/[C@@H](C)[C@H]2CC[C@H]3[C@@H]4CC=C5C[C@@H](O)CC[C@]5(C)[C@H]4CC[C@]23C)n1` [US20230340011, Example 132.], the IC50 result in assay [1] was “in the range around 5500 nM”.
With `CCOC(=O)N1CCN(C(=O)CC[C@@H](C)[C@H]2CC[C@H]3[C@@H]4CC=C5C[C@@H](O)CC[C@]5(C)[C@H]4CC[C@]23C)CC1` [US20230340011, Example 422.], in assay [2], the IC50 was ≤ 250 nM.
As to `C[C@H](CCC(=O)N1CCN(C(=O)c2ccnnc2)CC1)[C@H]1CC[C@H]2[C@@H]3CC=C4C[C@@H](O)CC[C@]4(C)[C@H]3CC[C@]12C` [US20230340011, Example 389.], the IC50 in assay [2] is ≤ 250 nM.
For `COC(=O)N1CCN(C(=O)CCC[C@H]2CC[C@H]3[C@@H]4CC=C5C[C@@H](O)CC[C@]5(C)[C@H]4CC[C@]23C)CC1` [US20230340011, Example 421.], the IC50 in assay [2] was ≤ 250 nM.
